Reference: the supplement of paper PMC13380429
± gives the standard deviation of the averaged measurements.

Columns and labels:
Conditions in all cases: 72 h
[1] = test system: Caco-2; experiment: cell viability relative to DMSO; higher = less toxic
[2] = test system: Calu-3; experiment: as above
[3] = test system: HepG2; experiment: as above
[4] = test system: Vero E6; experiment: as above
[5] = test system: Caco-2; experiment: relative viability EC50 (midpoint between 100% and the lowest measured viability); higher = less toxic
[6] = test system: Calu-3; experiment: as above
[7] = test system: HepG2; experiment: as above
[8] = test system: Vero E6; experiment: as above
[9] = test system: Caco-2; experiment: drug sensitivity score (DSS) for viability; higher = more toxic; extreme values may be limits of the assay
[10] = test system: Calu-3; experiment: as above
[11] = test system: HepG2; experiment: as above
[12] = test system: Vero E6; experiment: as above
[13] = test system: U2OS; experiment: cell viability relative to DMSO; higher = less toxic
[14] = test system: U2OS; experiment: relative viability EC50 (midpoint between 100% and the lowest measured viability); higher = less toxic
[15] = test system: U2OS; experiment: drug sensitivity score (DSS) for viability; higher = more toxic; extreme values may be limits of the assay

Row | SMILES | cell viability ([1]; 1 nM) | cell viability ([1]; 10 nM) | cell viability ([1]; 100 nM) | cell viability ([1]; 1000 nM) | cell viability ([1]; 10000 nM) | cell viability ([2]; 1 nM) | cell viability ([2]; 10 nM) | cell viability ([2]; 100 nM) | cell viability ([2]; 1000 nM) | cell viability ([2]; 10000 nM) | cell viability ([3]; 1 nM) | cell viability ([3]; 10 nM) | cell viability ([3]; 100 nM) | cell viability ([3]; 1000 nM) | cell viability ([3]; 10000 nM) | cell viability ([4]; 1 nM) | cell viability ([4]; 10 nM) | cell viability ([4]; 100 nM) | cell viability ([4]; 1000 nM) | cell viability ([4]; 10000 nM) | relative viability EC50 [5] | relative viability EC50 [6] | relative viability EC50 [7] | relative viability EC50 [8] | drug sensitivity score [9] | drug sensitivity score [10] | drug sensitivity score [11] | drug sensitivity score [12] | cell viability ([13]; 1 nM) | cell viability ([13]; 10 nM) | cell viability ([13]; 100 nM) | cell viability ([13]; 1000 nM) | cell viability ([13]; 10000 nM) | relative viability EC50 [14] | drug sensitivity score [15]
1 | NS(=O)(=O)c1cc2c(cc1C(F)(F)F)NC(Cc1ccccc1)NS2(=O)=O (centres undefined) [bendroflumethiazide] | 96.6% | 101% | 96.9% | 99.1% | 108% | 109% | 110% | 107% | 98.2% | 95.1% | 106% | 87.1% | 98.7% | 93.3% | 98.6% | 92.4% | 94.9% | 91.7% | 92.4% | 109% | > 10 µM | > 10 µM | > 10 µM | > 10 µM | 0 | 0 | 0 | 0 |  |  |  |  |  |  | 
2 | CC1=C(C(=O)Nc2cc3cn[nH]c3cc2F)C(c2ccc(C(F)(F)F)cc2)CC(=O)N1 (centres undefined) | 83% | 89.6% | 91.3% | 99.1% | 102% |  |  |  |  |  | 100% | 103% | 104% | 95.6% | 92% | 102% | 104% | 101% | 82.5% | 84.4% | > 10 µM |  | > 10 µM | > 10 µM | 0 |  | 0 | 2 | 94.9% | 97.9% | 92.3% | 96.8% | 86.3% | > 10 µM | 0
3 | NC(=O)c1cnc2[nH]ccc2c1N[C@@H]1[C@@H]2CC3C[C@H]1C[C@@](O)(C3)C2 | 101% | 101% | 90.5% | 104% | 113% |  |  |  |  |  | 113% | 112% | 107% | 109% | 47% | 95.4% | 97.6% | 99.6% | 107% | 101% | > 10 µM |  | 3.87 µM | > 10 µM | 0 |  | 2.3 | 0 | 96.4% | 97.1% | 96.5% | 93.1% | 67.2% |  | 2.6
4 | COC(=O)Nc1nc2cc([S+]([O-])c3ccccc3)ccc2[nH]1 (centres undefined) [oxfendazole] | 97% | 108% | 104% | 94.7% | 97.5% |  |  |  |  |  | 90.6% | 92.5% | 98.2% | 98.1% | 75.3% | 101% | 106% | 100% | 104% | 90.6% | > 10 µM |  | > 10 µM | > 10 µM | 0 |  | 1.2 | 0 | 101% | 96.6% | 103% | 98.1% | 103% | > 10 µM | 0
5 | Cc1[nH]nc(C(F)(F)F)c1Cc1sc2c(c1C(=O)N1C[C@](C)(O)CO1)c(=O)n(C)c(=O)n2C(C)C [AZD3965] | 92.9% | 79.5% | 74.9% | 72% | 76.5% | 93.6% | 101% | 101% | 103% | 107% | 99.4% | 89.2% | 99.3% | 93.3% | 101% | 99.8% | 97.5% | 101% | 92.9% | 97.4% |  | > 10 µM | > 10 µM | > 10 µM | 10.1 | 0 | 0 | 0 | 99.8% | 95.3% | 89% | 92% | 89.2% | > 10 µM | 0.6
6 | CNc1ncnc2c1ncn2[C@@H]1O[C@H](CO)[C@@H](O)[C@H]1O [N6-methyladenosine] | 109% | 112% | 98.5% | 110% | 106% | 110% | 89.5% | 102% | 92% | 86% | 105% | 108% | 101% | 104% | 81.2% | 99.8% | 103% | 102% | 98.7% | 102% | > 10 µM | > 10 µM | > 10 µM | > 10 µM | 0 | 0.7 | 0.3 | 0 |  |  |  |  |  |  | 
7 | CC1Oc2cc(cnc2N)-c2c(nn(C)c2C#N)CN(C)C(=O)c2ccc(F)cc21 (centres undefined) | 89.2 ± 7.6% | 97 ± 8% | 96.15 ± 0.21% | 91.6 ± 4.1% | 83.4 ± 7.8% | 105 ± 5.7% | 95.5 ± 3.8% | 88.7 ± 2.4% | 74.8 ± 4.3% | 78.7 ± 7.5% | 95 ± 4.1% | 101 ± 9.8% | 99.3 ± 4.7% | 87.5 ± 6.2% | 72.2 ± 6.9% | 103 ± 4.9% | 92 ± 6.6% | 90.5 ± 2.6% | 80.2 ± 0.28% | 83.2 ± 7.3% | > 10 µM |  |  | > 10 µM | 0 | 4.85 ± 1.1 | 2.5 ± 1.6 | 3.35 ± 0.35 | 97.8 ± 2.6% | 103.8 ± 0.64% | 97.2 ± 2.4% | 96.6 ± 1.4% | 83.5 ± 8.1% | > 10 µM | 0.7 ± 0.99
8 | CC(=O)Nc1ccc(S(=O)(=O)c2ccc(NC(C)=O)cc2)cc1 [acedapsone] | 119% | 115% | 96.2% | 108% | 92.9% |  |  |  |  |  | 105% | 97.3% | 86.3% | 107% | 102% | 106% | 101% | 105% | 99.5% | 98.8% | > 10 µM |  | > 10 µM | > 10 µM | 0 |  | 0 | 0 | 104% | 108% | 102% | 104% | 97.4% | > 10 µM | 0
